Results published in ChEMBL document CHEMBL4312036, “Antiproliferative activity and mode of action analysis of novel amino and amido substituted phenantrene and naphtho[2,1-b]thiophene derivatives” (Eur J Med Chem, 2020).
Activity calls are given as the source filed them. The calls are words filed in the database; no cut-off is given here.

How the values were obtained:
HepG2 [1] = test: cells; conditions: Homo sapiens, HepG2, 72 h
Description: Antiproliferative activity against human HepG2 cells incubated for 72 hrs by MTT assay

SW-620 = test: Antiproliferative activity against human SW620 cells incubated for 72 hrs by MTT assay; format: functional, cell-based; conditions: SW-620, 72 h
HeLa [2] = test: cells; conditions: Homo sapiens, 72 h
Description: Antiproliferative activity against human HeLa cells incubated for 72 hrs by MTT assay

CFPAC-1 = test: Antiproliferative activity against human CFPAC-1 cells incubated for 72 hrs by MTT assay; format: functional, cell-based; conditions: CFPAC-1, 72 h
HFF = test: Cytotoxicity against HFF cells assessed as reduction in cell viability incubated for 72 hrs by MTT assay; format: cell-based; conditions: Homo sapiens
A549 = test: Antiproliferative activity against human A549 cells incubated for 72 hrs by MTT assay; format: functional, cell-based; conditions: A549, 72 h
HeLa [3] = test: Downregulation of MEK1/2 protein level in human HeLa cells at 2 times IC50 incubated for 48 hrs by Western blot analysis; format: functional, cell-based
HeLa [4] = test: Upregulation of HIF1 protein level in human HeLa cells at 2 times IC50 incubated for 72 hrs by Western blot analysis; format: functional, cell-based
HeLa [5] = test: Upregulation of HIF1 protein level in human HeLa cells at 2 times IC50 incubated for 48 hrs by Western blot analysis; format: functional, cell-based
HepG2 [6] = test: Downregulation of MEK1/2 protein level in human HepG2 cells at 2 times IC50 incubated for 72 hrs by Western blot analysis; format: functional, cell-based
HepG2 [7] = test: Upregulation of HIF1 protein level in human HepG2 cells at 2 times IC50 incubated for 72 hrs by Western blot analysis; format: functional, cell-based
HeLa [8] = test: Downregulation of MEK1/2 protein level in human HeLa cells at 2 times IC50 incubated for 72 hrs by Western blot analysis; format: functional, cell-based

| SMILES | IC50 (HepG2 [1]) [µM] | IC50 (SW-620) [µM] | IC50 (HeLa [2]) [µM] | IC50 (CFPAC-1) [µM] | IC50 (HFF) [µM] | IC50 (A549) [µM] | Activity (HeLa [3]) | Activity (HeLa [4]) | Activity (HeLa [5]) | Activity (HepG2 [6]) | Activity (HepG2 [7]) | Activity (HeLa [8]) |
| --- | --- | --- | --- | --- | --- | --- | --- | --- | --- | --- | --- | --- |
| CC(C)CNC(=O)c1ccc2cc(C(=O)NCC(C)C)c3sccc3c2c1 | 86.1 | 0.9 | 10.8 | > 100 | 0.74 | 27.7 |  |  |  |  |  |  |
| N#Cc1cc2ccc(F)cc2c2ccsc12 | 32.1 | 42.4 | 11.6 | 51 | 16.4 | 49.9 |  |  |  |  |  |  |
| N#C/C(=C\c1ccc(C#N)cc1)c1ccccc1 | 0.52 | 9.18 | 0.33 | 6.7 | 6.07 | 8.39 | Active | Active | Active | Active | Active |  |
| N#C/C(=C\c1ccc(F)cc1)c1cccs1 | 5.22 | 36.4 | 3.59 | 34.2 | 86.9 | 40.8 |  |  |  |  |  |  |
| CC(C)CNc1ccc2cc(C#N)c3ccccc3c2c1 | 33.6 | 43.4 | 23.6 | 35.5 | 52.9 | 31.1 |  |  |  |  |  |  |
| CC(C)CNC(=O)c1cc2ccccc2c2ccsc12 | 75.4 | > 100 | 39.6 | 97.5 | 96.8 | 63.9 |  |  |  |  |  |  |
| N#Cc1cc2ccccc2c2ccsc12 | 54.3 | 70.3 | 29.9 | 55.6 | 84.6 | 50.4 |  |  |  |  |  |  |
| N#Cc1cc2ccc(N3CCNCC3)cc2c2ccsc12 | 20.9 | 2.58 | 2.38 | 3.66 | 37.5 | 7.09 |  |  |  |  |  |  |
| N#Cc1cc2ccccc2c2ccccc12 | 48.8 | > 100 | 30.3 | 80 | > 100 | 72.4 |  |  |  |  |  |  |
| N#C/C(=C\c1ccccc1)c1cccs1 | 43.4 | > 100 | 20 | 97.8 | 84.3 | 59 |  |  |  |  |  |  |
| CN(C)CCCNC(=O)c1ccc2cc(C(=O)NCCCN(C)C)c3sccc3c2c1 | 16.2 | 4.4 | 4.21 | 6.59 | 5.83 | 5.57 |  |  |  |  |  |  |
| N#Cc1ccc2cc(C#N)c3sccc3c2c1 | 7.22 | 6.04 | 0.45 | 8.19 | 5.13 | 5.53 |  |  |  |  |  |  |
| N#Cc1cc2ccc(F)cc2c2ccccc12 | 18.3 | 7.8 | 8.31 | 13.2 | 3.43 | 9.57 |  |  |  |  |  |  |
| CC(C)CNC(=O)c1cc2ccccc2c2ccccc12 | 93.4 | 61.3 | 28.4 | 68.6 | > 100 | 64.2 |  |  |  |  |  |  |
| N#Cc1ccc2cc(C#N)c3ccccc3c2c1 | 10.8 | 6.8 | 0.65 | 8.2 | 1.78 | 3.3 |  |  |  |  |  |  |
| N#Cc1cc2ccc(N3CCCCC3)cc2c2ccsc12 | 62 | 64.1 | 32.2 | 25.7 | 62 | 61.3 |  |  |  |  |  |  |
| N#Cc1cc2ccc(N3CCNCC3)cc2c2ccccc12 | 19.4 | 4.62 | 3.33 | 6.19 | 23.8 | 5.49 |  |  |  |  |  |  |
| N#C/C(=C\c1ccccc1)c1ccccc1 | 81.5 | > 100 | 48.9 | 88.2 | 93.7 | 64.6 |  |  |  |  |  |  |
| N#Cc1cc2ccc(N3CCCCC3)cc2c2ccccc12 | 81.8 | > 100 | 59.4 | > 100 | > 100 | 58.9 |  |  |  |  |  |  |
| CC(C)CNc1ccc2cc(C#N)c3sccc3c2c1 | 47.6 | 41.5 | 18.6 | 18.6 | 98.4 | 31 |  |  |  |  |  |  |
| N#C/C(=C\c1ccc(C#N)cc1)c1cccs1 | 0.3 | 61.4 | 0.21 | 52.4 | > 100 | 47.7 |  | Active | Active | Active | Active | Active |
| N#C/C(=C\c1ccc(F)cc1)c1ccccc1 | 7.73 | 38.5 | 3.44 | 46.9 | 52.7 | 45.8 |  |  |  |  |  |  |
| CN(C)CCCNC(=O)c1cc2ccccc2c2ccsc12 | 23.2 | 17.7 | 14.4 | 17.5 | 24 | 20.2 |  |  |  |  |  |  |
